Data published in patent US20110306639A1, “HYDROCARBYLIDENE NITROHYDROZINECARBOXIMIDAMIDES AND A METHOD FOR MAKING THE SAME, AS WELL AS THEIR USES AS AN INSECTICIDE” (priority 2008, published 2011).
Where two headings read alike, the source gives them in different places.

Legend:
myzus persicae = details: in vivo
asparagus caterpillar = details: in vivo

Structure (SMILES) | mortality(%) myzus persicae (600 μg/mL) (myzus persicae) [%] | mortality(%) Helicoverpa armigera (500 μg/mL) (Helicoverpa armigera; 500 μg/mL, 48 hours) [%] | mortality(%) asparagus caterpillar (500 μg/mL) (asparagus caterpillar) [%] | mortality(%) Helicoverpa armigera (500 μg/mL) (Helicoverpa armigera; in vivo) [%]
CCC=NNC(=N[N+](=O)[O-])NCCCC [Compound 11] | 1.5 | 50 | 50 | 
CCOc1ccc(C=NNC(=N[N+](=O)[O-])NC)cc1OC [Compound 95] | 58.0 |  | 80 | 40
CCCC=NNC(=N[N+](=O)[O-])NCc1ccc(Cl)nc1 [Compound 30] | 80.7 |  | 40 | 40
CCCNC(=N[N+](=O)[O-])NN=Cc1ccc(OCC)c(OC)c1 [Compound 96] | 73.4 |  | 50 | 20
CCC=NNC(=N[N+](=O)[O-])NCC [Compound 9] | 54.2 | 60 | 20 | 
C=CCNC(=N[N+](=O)[O-])NN=CC=C(C)CCC=C(C)C [Compound 20] | 5.2 |  | 50 | 0
CCCCCCC=NNC(=N[N+](=O)[O-])NCc1ccccc1 [Compound 49] | 28.6 | 50 | 0 | 
CCCCNC(=N[N+](=O)[O-])NN=CC=C(C)CCC=C(C)C [Compound 19] | 67.5 |  | 60 | 40
C=CC=NNC(=N[N+](=O)[O-])NCC=C [Compound 42] | 37.1 | 20 | 0 | 
CCNC(=N[N+](=O)[O-])NN=CC=C(C)CCC=C(C)C [Compound 17] | 19.8 |  | 40 | 40
C=CCNC(=N[N+](=O)[O-])NN=CCCCC [Compound 53] | 81.0 | 40 | 80 | 
C=CCNC(=N[N+](=O)[O-])NN=CC(C)C [Compound 5] | 27.8 | 90 | 30 | 
CNC(=N[N+](=O)[O-])NN=CC=C(C)CCC=C(C)C [Compound 16] | 31.4 |  | 70 | 30
CC=CC=NNC(=N[N+](=O)[O-])NC [Compound 31] | 42.6 | 60 | 10 | 
CC=CC=NNC(=N[N+](=O)[O-])NCCC [Compound 33] | 19.5 | 70 | 70 | 
CCCNC(=N[N+](=O)[O-])NN=Cc1ccccc1OC [Compound 73] | 20.2 | 50 | 70 | 
C#CCNC(=N[N+](=O)[O-])NN=CC=CC [Compound 36] | 35.0 | 30 | 50 | 
CCCCC=NNC(=N[N+](=O)[O-])NCc1ccccc1 [Compound 55] | 49.2 | 10 | 30 | 
CCCCNC(=N[N+](=O)[O-])NN=Cc1ccccc1Cl [Compound 91] | 1.2 |  | 80 | 0
C#CCNC(=N[N+](=O)[O-])NN=CCCCC [Compound 54] | 47.6 | 40 | 10 | 
